From ChEMBL document CHEMBL5724914, “Linking interpersonal differences in gut microbiota composition and drug biotransformation activity” (2024)

What was measured:
[1] = (§1) The drug is tested on Z-030 corresponding to mouse gut metagenome with ENA study accession number: PRJEB37062 and ENA sample accession number: ERS12561829 for biotransformation under anaerobic condition. The drug concentrations were measured over 9 timepoints collected between 0 and 24 hours of incubation by liquid-chromatography-coupled mass spectrometry (LC–MS); conditions: 2 µM
[2] = as §1, with “Z-027” for “Z-030”, “to” for “to mouse gut”, “ERS12561826” for “ERS12561829”; conditions: 2 µM
[3] = as §1, with “Z-023” for “Z-030”, “to” for “to mouse gut”, “ERS12561822” for “ERS12561829”; conditions: 2 µM
[4] = as §1, with “Z-016” for “Z-030”, “ERS12561815” for “ERS12561829”; conditions: 2 µM
[5] = as §1, with “Z-014” for “Z-030”, “rat” for “mouse”, “ERS12561814” for “ERS12561829”; conditions: 2 µM
[6] = as §1, with “Z-009” for “Z-030”, “pig” for “mouse”, “ERS12561809” for “ERS12561829”; conditions: 2 µM
[7] = as §1, with “Z-004” for “Z-030”, “to” for “to mouse gut”, “ERS12561804” for “ERS12561829”; conditions: 2 µM
[8] = as §1, with “Z-003” for “Z-030”, “pig” for “mouse”, “ERS12561803” for “ERS12561829”; conditions: 2 µM
[9] = as §1, with “Z-001” for “Z-030”, “ERS12561801” for “ERS12561829”; conditions: 2 µM
[10] = as §1, with “WLS-370” for “Z-030”, “human” for “mouse”, “ERS12561793” for “ERS12561829”; conditions: 2 µM
[11] = as §1, with “WLS-086” for “Z-030”, “human” for “mouse”, “ERS12561752” for “ERS12561829”; conditions: 2 µM
[12] = human gut metagenome, 24 h, 2 µM
[13] = human gut metagenome, 24 h, 2 µM; remark: listed apart in the source
[14] = human gut metagenome, 24 h, 2 µM; remark: listed apart in the source
[15] = human gut metagenome, 24 h, 2 µM; remark: listed apart in the source
[16] = human gut metagenome, 24 h, 2 µM; remark: listed apart in the source
[17] = human gut metagenome, 24 h, 2 µM; remark: listed apart in the source
[18] = human gut metagenome, 24 h, 2 µM; remark: listed apart in the source
[19] = human gut metagenome, 24 h, 2 µM; remark: listed apart in the source
[20] = human gut metagenome, 24 h, 2 µM; remark: listed apart in the source
Further: call rule not given here.

Row | Structure (SMILES) | Bacterial Biotransformation [1] | Bacterial Biotransformation [2] | Bacterial Biotransformation [3] | Bacterial Biotransformation [4] | Bacterial Biotransformation [5] | Bacterial Biotransformation [6] | Bacterial Biotransformation [7] | Bacterial Biotransformation [8] | Bacterial Biotransformation [9] | Bacterial Biotransformation [10] | Bacterial Biotransformation [11] | Bacterial Biotransformation [12] | Bacterial Biotransformation [13] | Bacterial Biotransformation [14] | Bacterial Biotransformation [15] | Bacterial Biotransformation [16] | Bacterial Biotransformation [17] | Bacterial Biotransformation [18] | Bacterial Biotransformation [19] | Bacterial Biotransformation [20]
1 | CC(C)NCC(O)COc1ccc(CCOCC2CC2)cc1 (stereo not given) [BETAXOLOL] | Compound NOT metabolized | Compound NOT metabolized | Compound metabolized | Compound NOT metabolized | Compound NOT metabolized | Compound NOT metabolized | Compound metabolized | Compound NOT metabolized | Compound NOT metabolized | Compound NOT metabolized | Compound metabolized | Compound NOT metabolized | Compound NOT metabolized | Compound metabolized | Compound metabolized | Compound metabolized | Compound NOT metabolized | Compound metabolized | Compound metabolized | Compound metabolized
2 | OCCOCCN1CCN(C2=Nc3ccccc3Sc3ccccc32)CC1 [QUETIAPINE] | Compound NOT metabolized | Compound NOT metabolized | Compound NOT metabolized | Compound NOT metabolized | Compound NOT metabolized | Compound NOT metabolized | Compound metabolized | Compound NOT metabolized | Compound NOT metabolized | Compound metabolized | Compound metabolized | Compound NOT metabolized | Compound NOT metabolized | Compound NOT metabolized | Compound metabolized | Compound metabolized | Compound NOT metabolized | Compound metabolized | Compound metabolized | Compound metabolized
3 | COCCc1ccc(OCC(O)CNC(C)C)cc1.COCCc1ccc(OCC(O)CNC(C)C)cc1.O=C(O)C(O)C(O)C(=O)O (stereo not given) [METOPROLOL TARTRATE] | Compound NOT metabolized | Compound NOT metabolized | Compound NOT metabolized | Compound NOT metabolized | Compound NOT metabolized | Compound NOT metabolized | Compound NOT metabolized | Compound metabolized | Compound NOT metabolized | Compound metabolized | Compound metabolized | Compound metabolized | Compound NOT metabolized | Compound metabolized | Compound metabolized | Compound metabolized | Compound NOT metabolized | Compound metabolized | Compound metabolized | Compound metabolized
4 | COC1=CC(=O)C[C@@H](C)[C@]12Oc1c(Cl)c(OC)cc(OC)c1C2=O [GRISEOFULVIN] | Compound NOT metabolized | Compound metabolized | Compound metabolized | Compound metabolized | Compound metabolized | Compound metabolized | Compound metabolized | Compound metabolized | Compound metabolized | Compound metabolized | Compound metabolized | Compound NOT metabolized | Compound metabolized | Compound metabolized | Compound metabolized | Compound metabolized | Compound NOT metabolized | Compound metabolized | Compound metabolized | Compound NOT metabolized
5 | Cc1ccnc2c1NC(=O)c1cccnc1N2C1CC1 [NEVIRAPINE] | Compound NOT metabolized | Compound NOT metabolized | Compound metabolized | Compound NOT metabolized | Compound NOT metabolized | Compound NOT metabolized | Compound NOT metabolized | Compound NOT metabolized | Compound NOT metabolized | Compound metabolized | Compound metabolized | Compound NOT metabolized | Compound NOT metabolized | Compound metabolized | Compound metabolized | Compound metabolized | Compound NOT metabolized | Compound metabolized | Compound metabolized | Compound metabolized

Other lines, results leading:

Row | Bacterial Biotransformation [1] | Bacterial Biotransformation [2] | Bacterial Biotransformation [3] | Bacterial Biotransformation [4] | Bacterial Biotransformation [5] | Bacterial Biotransformation [6] | Bacterial Biotransformation [7] | Bacterial Biotransformation [8] | Bacterial Biotransformation [9] | Bacterial Biotransformation [10] | Bacterial Biotransformation [11] | Bacterial Biotransformation [12] | Bacterial Biotransformation [13] | Bacterial Biotransformation [14] | Bacterial Biotransformation [15] | Bacterial Biotransformation [16] | Bacterial Biotransformation [17] | Bacterial Biotransformation [18] | Bacterial Biotransformation [19] | Bacterial Biotransformation [20] | Structure (SMILES)
6 | Compound NOT metabolized | Compound NOT metabolized | Compound metabolized | Compound metabolized | Compound metabolized | Compound metabolized | Compound NOT metabolized | Compound metabolized | Compound metabolized | Compound NOT metabolized | Compound metabolized | Compound NOT metabolized | Compound NOT metabolized | Compound NOT metabolized | Compound NOT metabolized | Compound metabolized | Compound NOT metabolized | Compound metabolized | Compound NOT metabolized | Compound NOT metabolized | COc1ccc2c(c1OC)C(=O)O[C@@H]2[C@H]1c2c(cc3c(c2OC)OCO3)CCN1C [NOSCAPINE]
7 | Compound NOT metabolized | Compound metabolized | Compound metabolized | Compound metabolized | Compound metabolized | Compound metabolized | Compound metabolized | Compound metabolized | Compound metabolized | Compound metabolized | Compound metabolized | Compound metabolized | Compound metabolized | Compound metabolized | Compound metabolized | Compound metabolized | Compound metabolized | Compound metabolized | Compound metabolized | Compound metabolized | CCCc1nc2c(C)cc(-c3nc4ccccc4n3C)cc2n1Cc1ccc(-c2ccccc2C(=O)O)cc1
8 | Compound NOT metabolized | Compound metabolized | Compound metabolized | Compound metabolized | Compound metabolized | Compound metabolized | Compound metabolized | Compound metabolized | Compound metabolized | Compound metabolized | Compound metabolized | Compound NOT metabolized | Compound NOT metabolized | Compound NOT metabolized | Compound NOT metabolized | Compound NOT metabolized | Compound NOT metabolized | Compound metabolized | Compound NOT metabolized | Compound NOT metabolized | CO[C@]12C[C@@H](COC(=O)c3cncc(Br)c3)CN(C)[C@@H]1Cc1cn(C)c3cccc2c13 [NICERGOLINE]
